What all share (experiment): NCI tumour cell line growth inhibition, 48 h
Assay [1] relates to HCC-2998 colon.
Assay [2] relates to SN12C renal.
Assay [3] deals with MDA-MB-435.
The subject of assay [4] is MCF7 breast.
Assay [5] deals with UO-31 renal.
In assay [6] the test system is RXF 393 renal.
Assay [7] concerns RPMI-8226 leukemia.
Assay [8] concerns OVCAR-8 ovarian.
Assay [9] relates to HT29 colon.
In assay [10] the test system is SK-OV-3 ovarian.

“And” between values parts separate entries of the source, which are not always exact repeats. Equal values may be shown once.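 Test compounds were applied to cells in 96-well plates for 48 hours at 5 doses. The concentration for 50% growth inhibition is given as GI50. The concentration for full growth arrest is given as TGI.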

The values below come from PubChem BioAssay (NCI).

As to `CN1CCN(c2nc(NCCCCNc3ccnc4cc(Cl)ccc34)c3ccccc3n2)CC1`, the GI50 in assay [1] is 2590 nM; in [2] it was 4730 nM; in assay [3], 1970 nM; in [4], 4300 nM; in [5], 1650 nM; in assay [6], 1740 nM. Also, the GI50 is 1800 nM in assay [7], 4250 nM in assay [8], 2000 nM in assay [9] and 18000 nM in [10]. The TGI in assay [1] was determined as 7120 nM; in assay [2], 20000 nM; in assay [3] it was 4250 nM; in assay [4], 19100 nM; in assay [5] it was 3540 nM; in assay [6] it was 3450 nM. The TGI in [7] came out at 5430 nM; in assay [8] it was 20100 nM; in [9], 5490 nM; in assay [10], 41200 nM.
Turning to `COc1ccn2c(C(C)=O)cc(C(=O)c3ccc4c(c3)Sc3ccccc3N4)c2c1`, the GI50 in assay [1] is 155 nM; in assay [2] it was 330 nM; in assay [3], 19 nM; in assay [4], 89.3 nM; in assay [5], 476 nM; in assay [6], 228 nM. The GI50 in assay [7] was 141 nM; in assay [8] it was 140 nM; in [9], 91.8 nM; in [10] it was 124 nM. In addition, the TGI in assay [1] is greater than 47800 nM; in assay [2], greater than 100000 nM; in assay [3], 45.4 nM; in assay [4] it was greater than 100000 nM; in assay [5] it was greater than 100000 nM; in assay [6], greater than 100000 nM. For the same compound, the TGI in assay [7] is greater than 100000 nM; in assay [8] it was greater than 100000 nM; in [9] it was 351 nM; in [10] it was greater than 23500 nM.
Regarding `O=C1/C(=C/c2ccccc2F)CNC/C1=C\c1ccccc1F`, the GI50 in assay [1] was 1130 nM and 359 nM; in [2], 837 nM and 783 nM; in assay [3], 482 nM and 472 nM; in assay [4] it was 305 nM; in [5], 567 nM and 753 nM; in [6], 385 nM and 728 nM. In addition, the GI50 in assay [7] is 191 nM and 220 nM; in [8] it was 338 nM and 369 nM; in assay [9], 261 nM and 242 nM; in [10], 1680 nM and 1580 nM. In addition, the TGI in assay [1] is 2380 nM and 1160 nM; in assay [2], 2050 nM and 2810 nM; in assay [3], 1460 nM and 1920 nM; in [4], 1390 nM; in assay [5], 1800 nM and 2050 nM; in [6], 1120 nM and 1870 nM. For the same compound, the TGI in assay [7] was 697 nM and 563 nM; in assay [8] it was 4270 nM and 2910 nM; in [9], 1170 nM and 543 nM; in [10], 4010 nM and 3120 nM.
Regarding `COc1cc2c3c(n(CCCNCC(OC)OC)c(=O)c2cc1OC)-c1cc2c(cc1C3=O)OCO2`, the GI50 in assay [3] is 10400 nM; in [4], less than 31.5 nM; in [5], 2130 nM; in assay [6], 3840 nM; in assay [7], less than 10 nM; in assay [8], 8310 nM. For the same compound, the GI50 in assay [9] was 4990 nM; in assay [10], 22800 nM. Moreover, the TGI in assay [3] was 97000 nM; in assay [4] it was greater than 48600 nM; in assay [5], 22500 nM; in assay [6] it was 21600 nM; in assay [7], 197 nM; in assay [8] it was 38400 nM. In addition, the TGI in [9] was 32200 nM; in assay [10], greater than 100000 nM.
For the compound `COC(=O)c1cc(-c2cc(OC)c(OC)c(OC)c2)[nH]c1N/N=C/c1c(Cl)cccc1Cl`, the GI50 was 2360 nM in assay [1]; 3300 nM in [2]; 247 nM in assay [3]; 1770 nM in [4]; 837 nM in assay [5]; 7450 nM in assay [6]. The GI50 is 1940 nM in assay [7], 1480 nM in assay [8], 3180 nM in assay [9] and 3070 nM in [10]. In addition, the TGI in assay [1] was 18400 nM; in assay [2] it was greater than 74300 nM; in assay [3] it was 8610 nM; in assay [4], 53000 nM; in [5], 4510 nM; in assay [6], 31400 nM. Moreover, the TGI was greater than 34400 nM in [7], 20300 nM in assay [8], greater than 82400 nM in assay [9] and 13300 nM in [10].
Regarding `CC1=CCC(OC(=O)C(C)(C)CCC(O)(C(=O)OC2(C(C)C)CCC3(C)OC3C2)C(C)C)(C(C)C)CC1` (stereo unspecified), the GI50 was 2130 nM in assay [1]; 124 nM in assay [2]; 355 nM in [3]; 121 nM in assay [4]; 63.4 nM in assay [5]; 587 nM in [6]. In addition, the GI50 in [7] is 234 nM; in assay [8], 611 nM; in assay [9] it was 606 nM; in assay [10] it was 692 nM. For the same compound, the TGI in assay [1] was 7330 nM; in assay [2], 532 nM; in assay [3], 1040 nM; in assay [4], 448 nM; in assay [5], 164 nM; in assay [6] it was 1250 nM. The TGI in assay [7] was 8850 nM; in assay [8], 15500 nM; in assay [9], 1750 nM; in [10], 5810 nM.
`CN(CC(=O)O)c1ccc(/C=C/c2ccnc3ccccc23)cc1`: the TGI stood at 53000 nM in assay [1]; 92800 nM in assay [2]; 51100 nM in [3]; 35200 nM in assay [4]; 54000 nM in assay [5]; 49800 nM in assay [6]. Moreover, the TGI is 57500 nM in assay [7], greater than 100000 nM in assay [8], 66600 nM in assay [9] and 91600 nM in assay [10].
For `CC(C)C[C@H](NC(=O)[C@H]1O[C@@H]1C(=O)O)C(=O)NCCc1ccc(O)cc1`, the GI50 is greater than 100000 nM in [1]; greater than 100000 nM in [2]; greater than 100000 nM in [3]; greater than 100000 nM in assay [4]; 38400 nM in assay [5]; greater than 100000 nM in assay [6]. The GI50 in assay [7], in [8], in assay [9] and in assay [10] was greater than 100000 nM throughout. Besides, the TGI in assay [1], in assay [2], in assay [3], in [4], in [5] and in assay [6] was greater than 100000 nM throughout. For the same compound, the TGI in [7], in [8], in assay [9] and in assay [10] was greater than 100000 nM throughout.
